# Tests used:
# IL-12 [1] = assay: IL-12 productivity of Mφ prepared by intraperitoneal injection of substances; assay type: in vivo, mice; settings: stimulation with LPS and IFNγ; Mφ prepared by intraperitoneal injection of the substance
# Description: (§1) The quantitative determination of IL-12 was conducted by a bioassay using human T cell strain 2D6 cells (refer to J. LEUKOCYTE BIOLOGY, vol. 61, PP 346, 1997).
# (§2) The 2D6 cells cultured in RPMI 1640 medium containing 500 pg/ml of recombinant human IL-12, 50 μM 2-mercaptoethanol and 10% FCS (bovine fetal serum) were shifted into a tube and centrifugally washed three times with the same medium from which IL-12 was removed, and the cell concentration was adjusted to 1×10^5/ml. The cell suspension was added in an amount of 100 μl to each well of a 96-well flat bottom plate in which 100 μl of a sample diluted in series with RPMI 1640 medium containing 50 μM 2-mercaptoethanol and 10% FCS was previously charged in each well. The mixture was then charged into a 5% CO2 incubator at 37° C. to conduct the incubation for 48 hours. In the last 6 hours, ^3H-TdR was pulsed (a substance adjusted to 370 kBq/ml with RPMI 1640 medium containing 50 μM 2-mercaptoethanol and 10% FCS was added in an amount of 50 μl each). The cells were harvested, and a radioactivity was measured with a β counter (Matrix 96: manufactured by Packard).
# Mφ prepared by intraperitoneally injecting LNT is reductive Mφ having a high GSH content, and Mφ prepared by intraperitoneally injecting LPS is oxidative Mφ having a low GSH content. It was examined whether or not there was a difference in IL-12 productivity between LNT derived Mφ and LPS derived Mφ.
# Then, the same analysis was conducted using Mφ prepared by intraperitoneally injecting substances of changing the GSH content in cells.
# IL-12 [2] = assay: Inhibition of IL-12 production from LNT-induced Mφ by addition of DEM or BCNU; assay type: cell-based
# Description: as §1, §2
# It was shown that IL-12 was produced only in reductive Mφ having the high GSH content in cells. […] That is, it was analyzed whether the IL-12 production was inhibited by stimulating the Mφ induced by LNT with DEM or BCNU.
# [3] = tested on: peritoneal Mφ of JAK3 knockout mice; assay: GSH content in peritoneal cells of treated JAK3 knockout mice, ACAS with MCB reagent; assay type: in vivo; settings: 1 mg/ml in drinking water, 24 days
# Description: 300 μl of a cell suspension having cell concentration of 3×10^5 cells/ml was prepared in RPMI 1640 medium (phenol-red-free), and it was charged into a chambered coverglass (#136439 manufactured by Nunc) and incubated in a CO2 incubator of 37° C. for 2 hours. The culture solution was washed with the same medium, and 300 μl of 10 μM monochlorobimane (made by Molecular Plobe) prepared with the same medium was added thereto. The mixture was charged into a CO2 incubator of 37° C., and reacted for 30 minutes. An intensity of fluorescence was then measured by ACAS. By this way, UV laser was used in the ACAS.
# JAK3 knockout mice were divided into three groups. A control group was a group in which mice were caused to freely drink usual tap water, an NAC group was a group in which mice were caused to freely drink tap water containing 1 mg/ml of NAC, and a GSH-OEt group was a group in which mice was caused to freely drink tap water containing 1 mg/ml of GSH-OEt. The bleeding was continued under SPF conditions for 24 days, and peritoneal exudate adhered cells, namely macrophages were obtained in like manner.
# Peritoneal cells of knockout mice that underwent the respective treatments were prepared, and the GSH content in cells was analyzed by ACAS using an MCB reagent.
# IL-6 = IL-6 productivity of Mφ from treated JAK3 knockout mice; assay type: in vivo; settings: LPS stimulation, 1 mg/ml in drinking water 24 days, untreated knockout 962 pg/ml
# Description: A stimulator was added to 1×10^6 Mφ, and the mixture was incubated in a CO2 incubator at 37° C. for 2 days. After centrifugation, the culture supernatant was collected.
# The quantitative determination of IL-6 was conducted using mouse hybridoma MH60 cells grown dependently on IL-6 (refer to J. EUR. IMMUNOL., vol. 18, PP 951, 1988). 100 μl of the culture supernatant was added to 100 μl of the MH60 cell solution adjusted to a concentration of 1×10^5 cells/ml with a 10% FCS-containing RPMI medium, and the mixture was incubated in a CO2 incubator at 37° C. for 2 days. Then, 10 μl of MTT (made by Sigma) was adjusted to a concentration of 5 mg/ml with the same medium. The mixture was reacted at 37° C. for 5 hours. After completion of the reaction, the reaction mixture was centrifuged to remove 160 μl of the supernatant. 100 μl of hydrochloric acid-propanol was added thereto, and it was suspended therein with a pipette man to dissolve cells. Immediately after the dissolution, absorbance of 570 nm was measured by an immunometer (manufactured by Bio-Rad).
# (§3) JAK3 knockout mice were divided into three groups. […]
# IL-12 [4] = assay: IL-12 productivity of Mφ from treated JAK3 knockout mice; assay type: in vivo; settings: stimulation with LPS and IFNγ, 1 mg/ml in drinking water 24 days, no productivity in control group
# Description: as §1, §2, §3
# [5] = tested on: skin graft (B10.D2 donor, BALB/c recipient, different in minor antigen only); assay: Skin transplantation rejection model; assay type: in vivo, mouse
# Description: Mice, 8 to 10 weeks old, are used, a BALB/c (H-2d) mouse is used as a recipient in transplantation, and a B10.D2 (H-2d) mouse different in minor antigen only is used as a donor. To the recipient mouse, 3 mg of ketamine and 0.0075 mg of xylazine for anesthesia are intraperitoneally administered, and transplantation is performed. The skin on the body wall of the donor mouse is transplanted on the thoracic wall (8×8 mm). A gauze having a larger size than the graft covers there, and an antibiotic ointment is applied. The graft is fastened with a cast to complete the operation. The cast is removed after 7 days, and the rejection is then observed every day.
# Mice, 8 to 10 weeks old, were used. A BALB/c (H-2d) mouse was used as a recipient of transplantation, and a B10.D2 (H-2d) mouse different in minor antigen only was used as a donor. […]
# With respect to the drug, N,N′-diacetylcystine diethyl ester, 0.5 ml, per injection, of a 400 μg/ml solution was injected in each of the B10.D2 donor and the BALB/c recipient intraperitoneally and subcutaneously in a site for skin transplantation. […] The significant difference in graft survival rate after the skin transplantation was comparatively detected by the Breslow-Gehan-Wilcoxon test using Kaplan-Meier survival curves. […]
# [6] = tested on: corneal graft (B10.D2 donor, BALB/c recipient, different in minor antigen only); assay: Corneal transplantation into high-risk eyes (induced corneal new blood vessels); rejection judged by corneal opacity score; assay type: in vivo, mouse
# Source text: In estimating the induction of the cornea take in the corneal allograft, mice, 8 to 10 weeks old, are used, a BALB/c (H-2d) mouse is used as a recipient, and a B10.D2 (H-2d) mouse only different in minor antigen is used as a donor.
# The corneal transplantation inducing corneal new blood vessel of a high-risk eye that tends to cause rejection at a high rate in an early stage in a recipient: a corneal parenchyma is sutured with three stitches using a 11-0 nylon yarn which is allowed to stand for 14 days and the nylon yarn is removed in the corneal transplantation, is performed as follows. To a recipient mouse are intraperitoneally administered 3 mg of ketamine and 0.0075 mg of xylazine for anesthesia, and transplantation is performed. A central portion of cornea in a donor mouse is cut out to a circle having a diameter of 2 mm to form a graft. A central portion of cornea in a host mouse is cut out to a diameter of 2 mm. The donor cornea is sutured on margins with eight stitches using a 11-0 nylon yarn. After the surgical operation, an antibiotic ointment is coated thereon, and the eyelids are sutured with a 8-0 nylon yarn. The eyelid suture is removed after 72 hours from the surgical operation, and the corneal suture is removed on day 7 after the transplantation.
# In the judgement of the corneal rejection, monitoring is performed twice a week using a slit-lamp microscope. The rejection is judged by scoring a corneal opacity with six grades. In connection with a time capable of judgement, the score of 3 or more on or after day 14 from the transplantation and the score of 2 or more on or after day 21 are judged to indicate the rejection. […]
# In a method of one administration, a drug is dissolved or suspended in a physiological saline solution to a predetermined concentration, and 0.5 ml thereof is then intraperitoneally injected in a mouse. […] A significant difference in graft survival rate of the corneal transplantation was comparatively detected by the Breslow-Gehan-Wilcoxon test using Kaplan-Meier survival curves. […]
# [7] = tested on: peritoneal exudate cells (macrophages); assay: Induction of oxidative or reductive macrophages, monochlorobimane/ACAS analysis of peritoneal exudate cells; assay type: in vivo; settings: i.p. to mice: 20 μg LPS; 100 μg LNT three times every other day; monochlorobimane 10 μM, ACAS
# Source text: The increase in amount of oxidative macrophages can easily be detected visually from the fact that almost no reaction product is observed. More specifically, a gray or blue image is obtained. An increase in amount of reductive macrophages is known from the fact that a red or yellow image can be obtained.
compound,measurement,setting,value
"CCCCS(=N)(=O)CCC(N)C(=O)O [BSO, L-S, R-buthionine sulfoximine]",IL-12 productivity,IL-12 [1],IL-12 was produced by stimulation with LPS and IFNγ only in Mφ derived from mice administered with GSH-OEt
CCOC(=O)/C=C\C(=O)OCC [DEM],IL-12 productivity,IL-12 [1],IL-12 was produced by stimulation with LPS and IFNγ only in Mφ derived from mice administered with GSH-OEt
same,IL-12 production from the Mφ induced by LNT after addition,"IL-12 [2]; addition of DEM or BCNU to LNT-induced Mφ, 828 pg/ml without addition",0 pg/mL
CCOC(=O)CNC(=O)[C@H](CS)NC(=O)CC[C@H](N)C(=O)O [GSH-OEt],reduced glutathione content in peritoneal Mφ vs tap water control group,[3],remarkably increased
same,IL-6 productivity,IL-6,82 pg/mL
same,IL-12 productivity,IL-12 [4],610 pg/mL
same,IL-12 productivity,IL-12 [1],"3,570 pg/ml"
"CCOC(=O)[C@H](CSSC[C@H](NC(C)=O)C(=O)OCC)NC(C)=O [N,N′-diacetylcystine diethyl ester]",MST,"[5]; 0.5 ml of 400 μg/ml i.p. and s.c., x3 before (donor and recipient) and day 3-21 after skin transplantation, N=8",28.3 ± 1.8 days
same,graft survival rate in comparison to the PBS administration control group,"[5]; skin transplantation, N=8 vs N=10, P<0.013",significantly increased
"COC(=O)[C@H](CSSC[C@H](NC(C)=O)C(=O)OC)NC(C)=O [NAC (OMe)2, N,N′-diacetylcystine dimethyl ester]",graft survival rate in comparison to the PBS administration control group,"[6]; 0.5 ml of 400 μg/ml i.p. 7 days, 4 days and 1 hour before corneal transplantation, N=15 vs N=10, P<0.0001, Breslow-Gehan-Wilcoxon test",significantly increased
same,rejection in 3 weeks,"[6]; high-risk eye corneal graft, i.p. x3 before transplantation, PBS control rejected by 100% in approximately 3 weeks",0%
same,graft survival rate finally provided,"[6]; high-risk eye corneal graft, observed till the eighth week",77%
CC(=O)N[C@@H](CS)C(=O)O [NAC],reduced glutathione content in peritoneal Mφ vs tap water control group,[3],remarkably increased
same,IL-6 productivity,IL-6,122 pg/mi
same,IL-12 productivity,IL-12 [4],420 pg/mL
letinan [LNT],type of macrophages induced,[7],reductive macrophages were induced
same,IL-12 productivity,IL-12 [1],"1,312 pg/ml"
same,IL-12 production from the Mφ induced by LNT,IL-12 [2]; without addition of DEM or BCNU,828 pg/mL
lipopolysaccharide [LPS],type of macrophages induced,[7],oxidative macrophages were induced
same,IL-12 productivity,IL-12 [1],no productivity was observed
